In this test the target is T1, STAT6 (Homo sapiens, UniProt P42226).
T1 construct: endogenous in cells; host or cells: MOLM-16, KU-812, SKNO1, MB231, L1236
T1 sequence (P42226 1-847): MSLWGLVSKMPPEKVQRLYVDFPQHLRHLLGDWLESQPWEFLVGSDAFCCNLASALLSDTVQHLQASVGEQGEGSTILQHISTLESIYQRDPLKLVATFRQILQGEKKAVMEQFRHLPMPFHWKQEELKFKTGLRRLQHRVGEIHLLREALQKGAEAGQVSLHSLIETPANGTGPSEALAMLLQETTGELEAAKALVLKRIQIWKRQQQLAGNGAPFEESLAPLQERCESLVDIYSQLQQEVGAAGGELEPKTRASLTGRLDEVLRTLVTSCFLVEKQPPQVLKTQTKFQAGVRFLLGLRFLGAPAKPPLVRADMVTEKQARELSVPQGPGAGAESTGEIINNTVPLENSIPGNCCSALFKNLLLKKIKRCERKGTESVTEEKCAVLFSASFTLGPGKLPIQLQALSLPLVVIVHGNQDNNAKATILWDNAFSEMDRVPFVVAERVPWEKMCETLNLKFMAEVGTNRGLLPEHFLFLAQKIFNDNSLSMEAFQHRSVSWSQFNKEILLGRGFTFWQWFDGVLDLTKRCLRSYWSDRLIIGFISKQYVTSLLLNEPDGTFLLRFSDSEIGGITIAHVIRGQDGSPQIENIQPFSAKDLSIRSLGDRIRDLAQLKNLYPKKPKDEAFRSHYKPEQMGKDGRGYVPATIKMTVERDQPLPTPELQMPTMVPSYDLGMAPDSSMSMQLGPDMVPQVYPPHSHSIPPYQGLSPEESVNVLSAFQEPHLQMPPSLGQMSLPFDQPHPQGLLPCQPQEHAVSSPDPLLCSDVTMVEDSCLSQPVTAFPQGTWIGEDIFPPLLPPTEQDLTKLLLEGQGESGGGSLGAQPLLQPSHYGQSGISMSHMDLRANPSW
The test is described as follows: Immunoblotting (Western blot) analysis of STAT6 degradation efficiency of degraders in treated cells. It is filed as cell-based. Summed up:
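Read-out: fluorescent IRDye 680RD/800CW secondaries imaged on an infrared scanner, with band intensities quantified by densitometry and GAPDH serving as loading control. Samples were RIPA lysates, BCA-normalised, from ~1 million treated cells.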

[1] abbreviates: MOLM-16 cells, class symbols, read-out: DC50 S6 MOLM-16.
Setting [2] is: L1236 cells, read-out: DC50 S6 L1236.

This note sets out measurements from patent publication US20230295197A1, “STAT5 and STAT6 Degraders and Uses Thereof” (REGENTS OF THE UNIVERSITY OF MICHICAN, priority 2022, published 2023).

Read-outs that look alike come from different tables or passages of the source.

The DC50 is the concentration giving 50% degradation.

As for `CC(C)(C)[C@H](NC(=O)c1cc2cc(C(F)(F)P(=O)(O)O)ccc2s1)C(=O)N1C[C@@H](OCCCCCCNc2cccc3c2CN(C2CCC(=O)NC2=O)C3=O)C[C@H]1C(=O)N1CCO[C@H](c2ccccc2)C1` (stereo partly drawn) [Compound 599, ((2-(((2S)-1-((2S,4S)-4-((6-((2-(2,6-dioxopiperidin-3-yl)-1-oxoisoindolin-4-yl)amino)hexyl)oxy)-2-((R)-2-phenylmorpholine-4-carbonyl)pyrrolidin-1-yl)-3,3-dimethyl-1-oxobutan-2-yl)carbamoyl)benzo[b]thiophen-5-yl)difluoromethyl)phosphonic acid], the half-maximal degradation concentration (DC50) (MOLM-16 cells, numeric bound, read-out: DC50 S6 MOLM-16) is greater than 0.3 µM.
On to `CC(C)(C)[C@H](NC(=O)c1cc2cc(C(F)(F)P(=O)(O)O)ccc2s1)C(=O)N1C[C@@H](OCC(=O)NCCC#Cc2ccc3c(c2)C(=O)N(C2CCC(=O)NC2=O)C3=O)C[C@H]1C(=O)N1CCO[C@H](c2ccccc2)C1` (stereo partly drawn) [Compound 482, ((2-(((2S)-1-((2S,4S)-4-(2-((4-(2-(2,6-dioxopiperidin-3-yl)-1,3-dioxoisoindolin-5-yl)but-3-yn-1-yl)amino)-2-oxoethoxy)-2-((R)-2-phenylmorpholine-4-carbonyl)pyrrolidin-1-yl)-3,3-dimethyl-1-oxobutan-2-yl)carbamoyl)benzo[b]thiophen-5-yl)difluoromethyl)phosphonic acid], for which, under setting [1], the half-maximal degradation concentration (DC50) is greater than 10 µM.
Same read-out and setting: the figure for `CC(C)(C)[C@H](NC(=O)c1cc2cc(C(F)(F)P(=O)(O)O)ccc2s1)C(=O)N1C[C@@H](OCC(=O)NCCCCCCCCC#Cc2ccc3c(c2)C(=O)N(C2CCC(=O)NC2=O)C3=O)C[C@H]1C(=O)N1CCC[C@H](c2ccccc2)C1` (stereo partly drawn) [Compound 504, ((2-(((2S)-1-((2S,4S)-4-(2-((10-(2-(2,6-dioxopiperidin-3-yl)-1,3-dioxoisoindolin-5-yl)dec-9-yn-1-yl)amino)-2-oxoethoxy)-2-((R)-3-phenylpiperidine-1-carbonyl)pyrrolidin-1-yl)-3,3-dimethyl-1-oxobutan-2-yl)carbamoyl)benzo[b]thiophen-5-yl)difluoromethyl)phosphonic acid] is greater than 10 µM; for `CC(C)(C)[C@H](NC(=O)c1cc2cc(C(F)(F)P(=O)(O)O)ccc2s1)C(=O)N1Cc2cc(OCC(=O)NCCC#Cc3cccc4c3C(=O)N(C3CCC(=O)NC3=O)C4=O)ccc2C[C@H]1C(=O)N1CCC[C@H](c2ccccc2)C1` (stereo partly drawn) [Compound 551, ((2-(((2S)-1-((3S)-7-(2-((4-(2-(2,6-dioxopiperidin-3-yl)-1,3-dioxoisoindolin-4-yl)but-3-yn-1-yl)amino)-2-oxoethoxy)-3-((R)-3-phenylpiperidine-1-carbonyl)-3,4-dihydroisoquinolin-2(1H)-yl)-3,3-dimethyl-1-oxobutan-2-yl)carbamoyl)benzo[b]thiophen-5-yl)difluoromethyl)phosphonic acid] it is greater than 10 µM.
For `Cc1ncsc1-c1ccc([C@H](C)NC(=O)[C@@H]2C[C@@H](O)CN2C(=O)[C@@H](NC(=O)CCCCCNC(=O)CO[C@H]2C[C@@H](C(=O)N3CCC[C@H](c4ccccc4)C3)N(C(=O)[C@@H](NC(=O)c3cc4cc(C(F)(F)P(=O)(O)O)ccc4s3)C(C)(C)C)C2)C(C)(C)C)cc1` [Compound 438, (difluoro(2-(((S)-1-((2S,4S)-4-(2-((6-(((S)-1-((2S,4R)-4-hydroxy-2-(((S)-1-(4-(4-methylthiazol-5-yl)phenyl)ethyl)carbamoyl)pyrrolidin-1-yl)-3,3-dimethyl-1-oxobutan-2-yl)amino)-6-oxohexyl)amino)-2-oxoethoxy)-2-((R)-3-phenylpiperidine-1-carbonyl)pyrrolidin-1-yl)-3,3-dimethyl-1-oxobutan-2-yl)carbamoyl)benzo[b]thiophen-5-yl)methyl)phosphonic acid], the DC50 reads like this: under setting [2], greater than 10 µM; under setting [1], greater than 10 µM.
Regarding `Cc1ncsc1-c1ccc([C@H](C)NC(=O)[C@@H]2C[C@@H](O)CN2C(=O)[C@@H](NC(=O)CNC(=O)CC(=O)N2CCN(C(=O)[C@@H](NC(=O)c3cc4cc(C(F)(F)P(=O)(O)O)ccc4s3)C(C)(C)C)[C@H](C(=O)N3CCO[C@H](c4ccccc4)C3)C2)C(C)(C)C)cc1` [Compound 443, (difluoro(2-(((S)-1-((S)-4-(3-((2-(((S)-1-((2S,4R)-4-hydroxy-2-(((S)-1-(4-(4-methylthiazol-5-yl)phenyl)ethyl)carbamoyl)pyrrolidin-1-yl)-3,3-dimethyl-1-oxobutan-2-yl)amino)-2-oxoethyl)amino)-3-oxopropanoyl)-2-((R)-2-phenylmorpholine-4-carbonyl)piperazin-1-yl)-3,3-dimethyl-1-oxobutan-2-yl)carbamoyl)benzo[b]thiophen-5-yl)methyl)phosphonic acid], the 50% degradation concentration (DC50) under setting [2] is greater than 10 µM and the DC50 under setting [1] was greater than 10 µM.
In the case of `CC(C)(C)[C@H](NC(=O)c1cc2cc(C(F)(F)P(=O)(O)O)ccc2s1)C(=O)N1Cc2cc(OCC(=O)NCCCCCCCCCC#Cc3ccc4c(c3)C(=O)N(C3CCC(=O)NC3=O)C4=O)ccc2C[C@H]1C(=O)N1CCC[C@H](c2ccccc2)C1` (stereo partly drawn) [Compound 562, ((2-(((2S)-1-((3S)-7-(2-((11-(2-(2,6-dioxopiperidin-3-yl)-1,3-dioxoisoindolin-5-yl)undec-10-yn-1-yl)amino)-2-oxoethoxy)-3-((R)-3-phenylpiperidine-1-carbonyl)-3,4-dihydroisoquinolin-2(1H)-yl)-3,3-dimethyl-1-oxobutan-2-yl)carbamoyl)benzo[b]thiophen-5-yl)difluoromethyl)phosphonic acid], the DC50 under setting [1] was greater than 10 µM.
Regarding `CC(C)(C)[C@H](NC(=O)c1cc2cc(C(F)(F)P(=O)(O)O)ccc2s1)C(=O)N1Cc2cc(OCC(=O)NCCCCCC#Cc3ccc4c(c3)C(=O)N(C3CCC(=O)NC3=O)C4=O)ccc2C[C@H]1C(=O)N1CCO[C@H](c2ccccc2)C1` (stereo partly drawn) [Compound 544, ((2-(((2S)-1-((3S)-7-(2-((7-(2-(2,6-dioxopiperidin-3-yl)-1,3-dioxoisoindolin-5-yl)hept-6-yn-1-yl)amino)-2-oxoethoxy)-3-((R)-2-phenylmorpholine-4-carbonyl)-3,4-dihydroisoquinolin-2(1H)-yl)-3,3-dimethyl-1-oxobutan-2-yl)carbamoyl)benzo[b]thiophen-5-yl)difluoromethyl)phosphonic acid], the half-maximal degradation concentration (DC50) under setting [1] was greater than 10 µM.
On the same count and under the same terms, the value for `Cc1cc([C@H](C(=O)N2C[C@H](O)C[C@H]2C(=O)N[C@@H](CC(=O)NCCOCCOCCNC(=O)CO[C@@H]2C[C@@H](C(=O)N(C)c3ccc(Br)cc3)N(C(=O)[C@@H](NC(=O)c3cc4cc(C(F)(F)P(=O)(O)O)ccc4s3)C(C)(C)C)C2)c2ccc(-c3scnc3C)cc2)C(C)C)on1` [Compound 424, ((2-(((S)-1-((2S,4R)-2-((4-bromophenyl)(methyl)carbamoyl)-4-(((S)-1-((2S,4R)-4-hydroxy-1-((R)-3-methyl-2-(3-methylisoxazol-5-yl)butanoyl)pyrrolidin-2-yl)-3-(4-(4-methylthiazol-5-yl)phenyl)-1,5,16-trioxo-9,12-dioxa-2,6,15-triazaheptadecan-17-yl)oxy)pyrrolidin-1-yl)-3,3-dimethyl-1-oxobutan-2-yl)carbamoyl)benzo[b]thiophen-5-yl)difluoromethyl)phosphonic acid] was greater than 10 µM.
